Laboratory results: US12252524B2, “GIP/GLP1 co-agonist compounds” (Eli Lilly and Company, priority 2018, dated 2025)
Numbered stars: 1 amine (or outer) side, 2 acyl side, 3 side chain; on linkers, the order of the positions; unused ones are H or OH. Square brackets hold non-standard residues; d marks the D form. Side chains are listed from the residue outwards. Peptide text beside a SMILES is read from it. * marks the point of attachment. C20 diacid = O=C(O)CCCCCCCCCCCCCCCCCCC(=O)*; γGlu = O=C(O)[C@H](CCC(=O)[*:2])N[*:1]; AEEA = NCCOCCOCC(=O)O; Aib = CC(C)(N)C(=O)O

Tests used:
[1] = target: T1, gastric inhibitory peptide receptor (GIPR) (Homo sapiens, UniProt P48546); assay: cAMP pharmacological functional assay in presence of casein, hGIPR; format: cell-based; conditions: HEK293 cells expressing hGIPR, 0.1% Casein, geometric mean; read-out: hGIPR cAMP Rel EC50 nM (SEM, n)
T1 sequence (P48546 22-466): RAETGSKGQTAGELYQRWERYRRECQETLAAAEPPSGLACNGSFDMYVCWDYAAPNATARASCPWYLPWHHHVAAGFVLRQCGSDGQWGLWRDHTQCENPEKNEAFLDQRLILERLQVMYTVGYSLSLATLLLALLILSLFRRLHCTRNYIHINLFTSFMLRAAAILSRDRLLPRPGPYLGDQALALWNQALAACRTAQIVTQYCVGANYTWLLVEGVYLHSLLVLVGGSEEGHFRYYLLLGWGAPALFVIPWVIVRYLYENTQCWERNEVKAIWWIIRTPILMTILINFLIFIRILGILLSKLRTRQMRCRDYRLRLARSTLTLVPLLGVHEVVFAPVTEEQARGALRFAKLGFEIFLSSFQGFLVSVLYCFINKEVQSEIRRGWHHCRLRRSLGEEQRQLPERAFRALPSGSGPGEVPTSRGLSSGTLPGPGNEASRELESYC

[2] = target: T2, human GIP receptor (Homo sapiens, UniProt P48546); assay: [125I]-GIP binding (SPA), human GIP receptor; conditions: read-out: hGIPR Ki, nM (SEM, n)
T2 construct: expressed in transfected cells; crude membranes
T2 sequence (P48546 22-466): T1 sequence (P48546 22-466)

[3] = target: T3, human Gcg receptor (Homo sapiens, UniProt P47871); assay: [125I]-Glucagon binding (SPA), human Gcg receptor; conditions: read-out: hGLcgR Ki, nM (SEM, n)
T3 construct: expressed in transfected cells; crude membranes
T3 sequence (P47871 26-477): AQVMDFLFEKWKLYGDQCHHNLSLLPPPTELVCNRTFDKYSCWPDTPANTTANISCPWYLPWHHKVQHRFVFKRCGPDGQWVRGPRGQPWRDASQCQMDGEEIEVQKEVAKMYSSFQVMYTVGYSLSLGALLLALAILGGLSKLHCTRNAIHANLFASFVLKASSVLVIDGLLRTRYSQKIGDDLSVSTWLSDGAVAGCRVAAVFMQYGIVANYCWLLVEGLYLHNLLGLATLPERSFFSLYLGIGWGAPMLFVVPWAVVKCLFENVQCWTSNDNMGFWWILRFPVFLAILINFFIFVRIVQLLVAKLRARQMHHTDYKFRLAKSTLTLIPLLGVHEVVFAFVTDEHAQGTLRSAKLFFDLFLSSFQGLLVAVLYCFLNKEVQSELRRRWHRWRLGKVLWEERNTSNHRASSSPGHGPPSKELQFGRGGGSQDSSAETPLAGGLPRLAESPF
In short: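 Cell pellets were lysed in hypotonic Tris buffer, pH 7.5, homogenized, and spun at low then high speed to give crude membranes. Ki was derived from the fitted IC50.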

[4] = target: human GLP-1 receptor (GLP-1R) (Homo sapiens, UniProt P43220); assay: cAMP pharmacological functional assay in presence of casein, hGLP-1R; format: cell-based; conditions: HEK293 cells expressing hGLP-1R, 0.1% Casein, geometric mean; read-out: hGLP1R cAMP Rel EC50 nM (SEM, n)
Sequence of human GLP-1 receptor (GLP-1R) (P43220 24-463): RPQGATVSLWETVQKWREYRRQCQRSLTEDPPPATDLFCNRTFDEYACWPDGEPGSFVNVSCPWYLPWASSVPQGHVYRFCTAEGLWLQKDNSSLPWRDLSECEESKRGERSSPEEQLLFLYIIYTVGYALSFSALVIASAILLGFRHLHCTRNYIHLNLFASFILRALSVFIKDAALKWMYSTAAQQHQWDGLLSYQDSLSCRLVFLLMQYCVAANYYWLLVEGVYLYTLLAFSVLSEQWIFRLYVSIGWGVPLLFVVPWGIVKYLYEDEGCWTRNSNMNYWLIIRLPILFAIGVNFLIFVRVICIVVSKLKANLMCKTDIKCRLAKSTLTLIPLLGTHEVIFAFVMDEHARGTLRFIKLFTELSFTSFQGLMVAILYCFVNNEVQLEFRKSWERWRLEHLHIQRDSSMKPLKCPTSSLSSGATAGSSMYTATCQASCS

[5] = target: human GLP-1R (Homo sapiens, UniProt P43220); assay: [125I]-GLP-1 binding (SPA), human GLP-1 receptor; set-up: expressed in transfected cells; crude membranes; conditions: read-out: hGLP1R Ki, (nM) (SEM, n)
Sequence of human GLP-1R (P43220 24-463): as above
In short: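 Crude-membrane binding assay; one membrane prep included 1 mM MgCl2 and 25 units/ml DNAse I during lysis. Assay buffer at pH 7.4 contains 0.1% (w/v) bacitracin and 0.003% (w/v) TWEEN-20. Ki is reported as geometric mean.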

Row | SMILES | EC50 [1] [nM] | Ki [2] [nM] | Ki [3] [nM] | EC50 [4] [nM] | Ki [5] [nM]
1 | CC[C@H](C)[C@H](NC(=O)[C@H](CC(C)C)NC(=O)[C@H](Cc1ccc(O)cc1)NC(=O)[C@H](CCC(=O)O)NC(=O)[C@@H](NC(=O)[C@H](Cc1ccccc1)NC(=O)[C@H](C)NC(=O)[C@H](CCCCNC(=O)COCCOCCNC(=O)COCCOCCNC(=O)CC[C@H](NC(=O)CCCCCCCCCCCCCCCCCCC(=O)O)C(=O)O)NC(=O)[C@H](CCC(N)=O)NC(=O)[C@H](C)NC(=O)[C@@H](NC(=O)C(C)(C)NC(=O)[C@H](CC(=O)O)NC(=O)[C@H](CC(C)C)NC(=O)[C@H](CC(C)C)NC(=O)[C@@H](NC(=O)[C@H](CO)NC(=O)[C@H](Cc1ccc(O)cc1)NC(=O)[C@H](CC(=O)O)NC(=O)[C@H](CO)NC(=O)[C@@H](NC(=O)[C@H](Cc1ccccc1)NC(=O)[C@@H](NC(=O)CNC(=O)[C@H](CCC(=O)O)NC(=O)C(C)(C)NC(=O)[C@@H](N)Cc1ccc(O)cc1)[C@@H](C)O)[C@@H](C)O)[C@@H](C)CC)[C@@H](C)CC)[C@@H](C)CC)C(=O)N[C@@H](CCC(=O)O)C(=O)NCC(=O)NCC(=O)N1CCC[C@H]1C(=O)N[C@@H](CO)C(=O)N[C@@H](CO)C(=O)NCC(=O)N[C@@H](C)C(=O)N1CCC[C@H]1C(=O)N1CCC[C@H]1C(=O)N1CCC[C@H]1C(=O)N[C@@H](CO)C(N)=O [Example 13] (H-Y[Aib]EGTFTSDYSILLD[Aib]IAQK([AEEA-AEEA-γGlu-C20 diacid])AFIEYLIEGGPSSGAPPPS-NH2) | 1.05 | 0.296 | > 1060 | 5.39 | 31.1
2 | CC[C@H](C)[C@H](NC(=O)[C@H](CCCCN)NC(=O)[C@H](CC(=O)O)NC(=O)[C@H](CC(C)C)NC(=O)[C@H](CC(C)C)NC(=O)[C@@H](NC(=O)[C@H](CO)NC(=O)[C@H](Cc1ccc(O)cc1)NC(=O)[C@H](CC(=O)O)NC(=O)[C@H](CO)NC(=O)[C@@H](NC(=O)[C@H](Cc1ccccc1)NC(=O)[C@@H](NC(=O)CNC(=O)[C@H](CCC(=O)O)NC(=O)C(C)(C)NC(=O)[C@@H](N)Cc1ccc(O)cc1)[C@@H](C)O)[C@@H](C)O)[C@@H](C)CC)C(=O)N[C@@H](C)C(=O)N[C@@H](CCC(N)=O)C(=O)N[C@@H](CCCCNC(=O)COCCOCCNC(=O)COCCOCCNC(=O)CC[C@H](NC(=O)CCCCCCCCCCCCCCCCCCC(=O)O)C(=O)O)C(=O)N[C@@H](CCC(=O)O)C(=O)N[C@@H](Cc1ccccc1)C(=O)N[C@H](C(=O)N[C@@H](CCC(N)=O)C(=O)N[C@@H](Cc1ccc(O)cc1)C(=O)N[C@@H](CC(C)C)C(=O)N[C@@H](CC(C)C)C(=O)N[C@@H](CCC(=O)O)C(=O)NC(C)(C)C(=O)NCC(=O)N1CCC[C@H]1C(=O)N[C@@H](CO)C(=O)N[C@@H](CO)C(=O)NCC(=O)N[C@@H](C)C(=O)N1CCC[C@H]1C(=O)N1CCC[C@H]1C(=O)N1CCC[C@H]1C(=O)N[C@@H](CO)C(N)=O)[C@@H](C)CC [Example 14] (H-Y[Aib]EGTFTSDYSILLDKIAQK([AEEA-AEEA-γGlu-C20 diacid])EFIQYLLE[Aib]GPSSGAPPPS-NH2; N-terminus assumed) | 0.284 | 0.0494 | 160 | 1.87 | 29.6
3 | CC[C@H](C)[C@H](NC(=O)[C@H](Cc1ccccc1)NC(=O)[C@H](C)NC(=O)C(C)(C)NC(=O)[C@H](CCC(N)=O)NC(=O)[C@H](C)NC(=O)[C@H](CCCCNC(=O)COCCOCCNC(=O)COCCOCCNC(=O)CC[C@H](NC(=O)CCCCCCCCCCCCCCCCCCC(=O)O)C(=O)O)NC(=O)[C@H](CCCCN)NC(=O)[C@H](CC(=O)O)NC(=O)[C@H](CC(C)C)NC(=O)[C@H](CC(C)C)NC(=O)[C@@H](NC(=O)[C@H](CO)NC(=O)[C@H](Cc1ccc(O)cc1)NC(=O)[C@H](CC(=O)O)NC(=O)[C@H](CO)NC(=O)[C@@H](NC(=O)[C@H](Cc1ccccc1)NC(=O)[C@@H](NC(=O)CNC(=O)[C@H](CCC(=O)O)NC(=O)C(C)(C)NC(=O)[C@@H](N)Cc1c[nH]cn1)[C@@H](C)O)[C@@H](C)O)[C@@H](C)CC)C(=O)N[C@@H](CCC(=O)O)C(=O)N[C@@H](Cc1ccc(O)cc1)C(=O)N[C@@H](CC(C)C)C(=O)N[C@@H](CC(C)C)C(=O)N[C@@H](CCC(=O)O)C(=O)NC(C)(C)C(=O)NCC(=O)N1CCC[C@H]1C(=O)N[C@@H](CO)C(=O)N[C@@H](CO)C(=O)NCC(=O)N[C@@H](C)C(=O)N1CCC[C@H]1C(=O)N1CCC[C@H]1C(=O)N1CCC[C@H]1C(=O)N[C@@H](CO)C(N)=O [Example 15] (H-H[Aib]EGTFTSDYSILLDKK([AEEA-AEEA-γGlu-C20 diacid])AQ[Aib]AFIEYLLE[Aib]GPSSGAPPPS-NH2) | 0.613 | 0.284 | 130 | 0.0336 | 2.19
4 | CC[C@H](C)[C@H](NC(=O)[C@H](Cc1ccccc1)NC(=O)[C@H](C)NC(=O)C(C)(C)NC(=O)[C@H](CCC(N)=O)NC(=O)[C@H](C)NC(=O)[C@H](CCCCNC(=O)COCCOCCNC(=O)COCCOCCNC(=O)CC[C@H](NC(=O)CCCCCCCCCCCCCCCCCCC(=O)O)C(=O)O)NC(=O)[C@H](CCCCN)NC(=O)[C@H](CC(=O)O)NC(=O)[C@H](CC(C)C)NC(=O)[C@H](CC(C)C)NC(=O)[C@@H](NC(=O)[C@H](CO)NC(=O)[C@H](Cc1ccc(O)cc1)NC(=O)[C@H](CC(=O)O)NC(=O)[C@H](CO)NC(=O)[C@@H](NC(=O)[C@H](Cc1ccccc1)NC(=O)[C@@H](NC(=O)CNC(=O)[C@H](CCC(=O)O)NC(=O)C(C)(C)NC(=O)[C@@H](N)Cc1c[nH]cn1)[C@@H](C)O)[C@@H](C)O)[C@@H](C)CC)C(=O)N[C@@H](CCC(=O)O)C(=O)N[C@@H](Cc1ccc(O)cc1)C(=O)N[C@@H](CC(C)C)C(=O)N[C@H](C(=O)N[C@@H](CCC(=O)O)C(=O)NC(C)(C)C(=O)NCC(=O)N1CCC[C@H]1C(=O)N[C@@H](CO)C(=O)N[C@@H](CO)C(=O)NCC(=O)N[C@@H](C)C(=O)N1CCC[C@H]1C(=O)N1CCC[C@H]1C(=O)N1CCC[C@H]1C(=O)N[C@@H](CO)C(N)=O)[C@@H](C)CC [Example 16] (H-H[Aib]EGTFTSDYSILLDKK([AEEA-AEEA-γGlu-C20 diacid])AQ[Aib]AFIEYLIE[Aib]GPSSGAPPPS-NH2) | 0.975 | 0.0841 | 371 | 0.0437 | 2.78
5 | CC[C@H](C)[C@H](NC(=O)[C@H](CCCCN)NC(=O)[C@H](CC(=O)O)NC(=O)[C@H](CC(C)C)NC(=O)[C@H](CC(C)C)NC(=O)[C@@H](NC(=O)[C@H](CO)NC(=O)[C@H](Cc1ccc(O)cc1)NC(=O)[C@H](CC(=O)O)NC(=O)[C@H](CO)NC(=O)[C@@H](NC(=O)[C@H](Cc1ccccc1)NC(=O)[C@@H](NC(=O)CNC(=O)[C@H](CCC(=O)O)NC(=O)C(C)(C)NC(=O)[C@@H](N)Cc1c[nH]cn1)[C@@H](C)O)[C@@H](C)O)[C@@H](C)CC)C(=O)N[C@@H](C)C(=O)N[C@@H](CCC(N)=O)C(=O)N[C@@H](CCCCNC(=O)COCCOCCNC(=O)COCCOCCNC(=O)CC[C@H](NC(=O)CCCCCCCCCCCCCCCCCCC(=O)O)C(=O)O)C(=O)N[C@@H](C)C(=O)N[C@@H](Cc1ccccc1)C(=O)N[C@H](C(=O)N[C@@H](CCC(=O)O)C(=O)N[C@@H](Cc1ccc(O)cc1)C(=O)N[C@@H](CC(C)C)C(=O)N[C@@H](CC(C)C)C(=O)N[C@@H](CCC(=O)O)C(=O)NC(C)(C)C(=O)NCC(=O)N1CCC[C@H]1C(=O)N[C@@H](CO)C(=O)N[C@@H](CO)C(=O)NCC(N)=O)[C@@H](C)CC [Example 17] (H-H[Aib]EGTFTSDYSILLDKIAQK([AEEA-AEEA-γGlu-C20 diacid])AFIEYLLE[Aib]GPSSG-NH2; N-terminus assumed) | 5.81 | 0.606 | 261 | 0.152 | 7.63
